Measurements published in ChEMBL document CHEMBL3861944 (Medchemcomm, 2016).

Test: Antioxidant activity assessed as DPPH free radical scavenging activity incubated for 30 mins in dark
Assay type: functional

O=C1O[C@H]([C@@H](O)CO)C(O)=C1O [ASCORBIC ACID]
IC50: 79.3 µM
